The text below walks through data of patent US11351178B2, “Selective HDAC6 inhibitors” (ITALFARMACO S.P.A., priority 2017, dated 2022).

In one series the target is T1, recombinant human HDAC6 (Homo sapiens, UniProt Q9UBN7).
T1 sequence (Q9UBN7 1-1215): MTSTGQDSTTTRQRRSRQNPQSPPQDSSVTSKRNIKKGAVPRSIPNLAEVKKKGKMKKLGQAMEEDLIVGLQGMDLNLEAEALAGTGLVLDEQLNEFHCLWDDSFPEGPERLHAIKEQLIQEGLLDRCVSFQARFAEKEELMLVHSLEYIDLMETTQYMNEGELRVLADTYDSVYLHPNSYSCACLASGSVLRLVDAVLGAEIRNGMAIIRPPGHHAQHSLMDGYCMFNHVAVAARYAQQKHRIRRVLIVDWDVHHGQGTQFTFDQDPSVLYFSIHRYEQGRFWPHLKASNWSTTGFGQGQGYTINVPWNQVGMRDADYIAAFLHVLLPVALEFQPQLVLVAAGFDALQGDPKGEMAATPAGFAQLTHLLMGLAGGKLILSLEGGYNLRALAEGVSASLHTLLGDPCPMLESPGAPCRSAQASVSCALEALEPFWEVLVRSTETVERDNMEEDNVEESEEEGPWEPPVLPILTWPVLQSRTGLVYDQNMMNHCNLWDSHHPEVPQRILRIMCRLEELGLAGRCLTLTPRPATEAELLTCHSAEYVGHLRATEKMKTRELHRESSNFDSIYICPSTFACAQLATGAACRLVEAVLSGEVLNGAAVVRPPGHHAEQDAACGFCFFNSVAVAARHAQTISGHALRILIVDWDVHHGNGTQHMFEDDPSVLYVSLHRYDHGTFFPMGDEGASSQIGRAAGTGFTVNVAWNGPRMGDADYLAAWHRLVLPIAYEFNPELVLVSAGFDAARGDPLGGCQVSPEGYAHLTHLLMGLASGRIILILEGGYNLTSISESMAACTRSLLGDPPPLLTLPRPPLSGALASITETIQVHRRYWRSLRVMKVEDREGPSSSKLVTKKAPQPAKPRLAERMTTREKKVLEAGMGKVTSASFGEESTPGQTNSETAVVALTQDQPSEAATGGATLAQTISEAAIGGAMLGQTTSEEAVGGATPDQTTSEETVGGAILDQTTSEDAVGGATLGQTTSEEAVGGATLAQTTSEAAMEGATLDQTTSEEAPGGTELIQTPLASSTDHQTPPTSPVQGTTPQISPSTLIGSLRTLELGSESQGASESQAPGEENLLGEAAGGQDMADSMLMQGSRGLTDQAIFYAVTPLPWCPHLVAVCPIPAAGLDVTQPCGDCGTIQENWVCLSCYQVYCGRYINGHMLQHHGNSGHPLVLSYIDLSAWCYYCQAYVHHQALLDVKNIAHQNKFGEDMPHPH
Nature of the series: Enzymatic screening on recombinant human HDAC6. Type of series: biochemical. To be noted: Table 2; read-out: HDAC6 IC50. The gist of the method:
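Substrates were Fluor de Lys, Fluor de Lys-Green or trifluoroacetyl-L-lysine, in 25 mM Tris-HCl pH 8, 130 mM NaCl, 0.05% Tween-20, 10% glycerol. They were added after isoform-dependent preincubation of recombinant human enzyme with compound at 30 °C, and the reaction also ran at 30 °C.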

The nature of series [1]: Stability to Phase I metabolism in rat S9 liver fraction. As to conditions: after 90 min, 37° C. The series is classed as in vitro ADME. The gist of the method:
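Phase I stability in human and rat hepatic S9 at 37 °C, sampled up to 90 min. Samples were stopped with acidified acetonitrile on ice, then quantified by HPLC-UV or LC-MS/MS.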

The nature of another series: Stability in rat plasma. Type of series: in vitro ADME. As to conditions: after 4 hours, 37° C. As to the method:
In order to evaluate the stability to circulating enzymes, test compounds were incubated in human and rat plasma at 37° C. in a thermostated oscillating bath. Each test compound was incubated at μM (50 μM when the samples were analysed by UV/HPLC, 1 or 2 μM when the samples were analysed by LC-MS/MS) concentration for 0, 15, 30 min and 1, 2 and 4 hours. The reaction was stopped placing tubes on ice bath and adding acidified acetonitrile. After centrifugation for 10 minutes at 14000 rpm, an aliquot of the supernatant was diluted with water, filtered with 0.45 μm syringe filters and injected in HPLC-UV or in LC-MS/MS. The percentages of amount remaining at the various times of incubation with respect to initial amount were calculated. The half-life in plasma was also calculated.

In series [2] the test system is B 697 promyelocytic cell line. Nature of the series: Cytotoxicity on 697 cell line (CellTiter 96). Type of series: cell-based. To be noted: 72 hours incubation, read-out: 697 TOXICITY
The method, then: Cytotoxic activity was evaluated on B 697 […] cell line for all synthesized compounds and on peripheral blood mononuclear cells (PBMCs) for compounds showing a good potency/selectivity profile.
Cells were seeded in plate (2×10^4 cells per well for 697, 5×10^5 cells per well for PBMCs). The test compounds (concentrations from 1.5 nM to 10000 nM for PBMCs and from 1 nM to 10000 nM for 697) were added after 24 hours and incubated 72 hours. The molecules cytotoxic activity was evaluated using CellTiter 96© Aqueous One Solution Cell Proliferation Assay (Promega), which measures the mitochondria function, following the manufacturer's instructions.

Consider `Cn1c(Sc2c(F)cc(C(=O)NO)cc2F)nnc1-c1ccc2ccccc2n1` [comp. 122, 3,5-difluoro-4-[[4-methyl-5-(2-quinolyl)-1,2,4-triazol-3-yl]sulfanyl]benzenecarbohydroxamic acid], for which the IC50 on recombinant human HDAC6 is 12 nM; in series [2] it was 1030 nM. Besides, the “residual percentage in rat S9 fraction” value in series [1] is listed as 47%. Further, the “residual percentage in rat plasma” value in “Stability in rat plasma” came to 94%.

With `O=C(O)c1ccc(Cc2nnnn2Cc2c(F)cc(C(=O)NO)cc2F)cc1` [comp. 161, 4-[[1-[[2,6-difluoro-4-(hydroxycarbamoyl)phenyl]methyl]tetrazol-5-yl]methyl]benzoic acid], the IC50 stood at 327 nM at recombinant human HDAC6 and 16900 nM in series [2].

In the case of `CN1CCN(S(=O)(=O)c2cccc(-c3nnc(Sc4c(F)cc(C(=O)NO)cc4F)n3C)c2)CC1` [comp. 151, 3,5-difluoro-4-[[4-methyl-5-[3-(4-methylpiperazin-1-yl)sulfonylphenyl]-1,2,4-triazol-3-yl]sulfanyl]benzenecarbohydroxamic acid], the IC50 on recombinant human HDAC6 is 9 nM; in series [2], 287 nM. Moreover, the “residual percentage in rat S9 fraction” value in series [1] was 62%. Further, the “residual percentage in rat plasma” value in “Stability in rat plasma” stood at 87%.

In the case of `O=C(NO)c1ccc(Cn2c(Cc3c[nH]c4ccccc34)nnc2-c2cccs2)cc1` [compound 183, 4-((3-((1H-indol-3-yl)methyl)-5-(thiophen-2-yl)-4H-1,2,4-triazol-4-yl)methyl)-N-hydroxybenzamide], the results for the IC50 (at recombinant human HDAC6; in series [2]) were 212 nM and 50300 nM, respectively.

With `Nc1ccc(-c2nnnn2Cc2ccc(C(=O)NO)cc2)cc1` [comp. 170, 4-[[5-(4-aminophenyl)tetrazol-1-yl]methyl]benzenecarbohydroxamic acid], the IC50 at recombinant human HDAC6 amounted to 8 nM; in series [2], 61400 nM.

For the molecule `O=C(NO)c1cc(F)c(Cn2nnnc2-c2ccc(C(F)(F)F)cn2)c(F)c1` [comp. 129, 3,5-difluoro-4-[[5-[5-(trifluoromethyl)-2-pyridyl]tetrazol-1-yl]methyl]benzenecarbohydroxamic acid], the results for the IC50 (at recombinant human HDAC6; in series [2]) were 13 nM and 13200 nM, respectively. In series [1], the “residual percentage in rat S9 fraction” value amounted to 45%. The “residual percentage in rat plasma” value in “Stability in rat plasma” was 93%.

With `COC(=O)c1ccc(Cc2nnnn2Cc2c(F)cc(C(=O)NO)cc2F)cc1` [comp. 155, methyl 4-[[1-[[2,6-difluoro-4-(hydroxycarbamoyl)phenyl]methyl]tetrazol-5-yl]methyl]benzoate], the IC50 at recombinant human HDAC6 amounted to 172 nM; in series [2], 22700 nM.

For the molecule `O=C(O)c1cccc(-c2nnn(Cc3ccc(C(=O)NO)cc3)n2)c1` [comp. 163, 3-[2-[[4-(hydroxycarbamoyl)phenyl]methyl]tetrazol-5-yl]benzoic acid], the figures for the IC50 (at recombinant human HDAC6; in series [2]) were 12 nM and 49000 nM, respectively.

On to `O=C(NO)c1cc(F)c(Sc2nnc(-c3ccncc3)n2Cc2ccco2)c(F)c1` [comp. 146, 3,5-difluoro-4-[[4-(2-furylmethyl)-5-(4-pyridyl)-1,2,4-triazol-3-yl]sulfanyl]benzenecarbohydroxamic acid], for which the IC50 at recombinant human HDAC6 is 20 nM; in series [2] it was over 10000 nM. Besides, the “residual percentage in rat S9 fraction” value in series [1] is reported as 59%.

As for `O=C(NO)c1ccc(Cn2nnc(-c3ccco3)n2)cc1` [comp. 12, 4-((5-(furan-2-yl)-2H-tetrazol-2-yl)methyl)-N-hydroxybenzamide], the IC50 at recombinant human HDAC6 was 4 nM; in series [2] it was over 10000 nM. Besides, the “residual percentage in rat S9 fraction” value in series [1] was determined as 44%. Also, the “residual percentage in rat plasma” value in the series “Stability in rat plasma” is given as 87%.

With `O=C(O)c1ccc(Cc2nnnn2Cc2ccc(C(=O)NO)cc2)cc1` [comp. 159, 4-[[1-[[4-(hydroxycarbamoyl)phenyl]methyl]tetrazol-5-yl]methyl]benzoic acid], the IC50 at recombinant human HDAC6 was 1370 nM; in series [2], 16900 nM.

Regarding `O=C(NO)c1cc(F)c(Sc2nnc(-c3cccnc3)n2Cc2ccco2)c(F)c1` [comp. 147, 3,5-difluoro-4-[[4-(2-furylmethyl)-5-(3-pyridyl)-1,2,4-triazol-3-yl]sulfanyl]benzenecarbohydroxamic acid], the results for the IC50 (on recombinant human HDAC6; in series [2]) were 16 nM and over 10000 nM, respectively. The “residual percentage in rat S9 fraction” value in series [1] is listed as 76%. Besides, the “residual percentage in rat plasma” value in “Stability in rat plasma” is 89%.

With `Cn1c(Sc2c(F)cc(C(=O)NO)cc2F)nnc1-c1cnc2ccccn12` [comp. 149, 3,5-difluoro-4-[(5-imidazo[1,2-a]pyridin-3-yl-4-methyl-1,2,4-triazol-3-yl)sulfanyl]benzenecarbohydroxamic acid], the values for the IC50 (at recombinant human HDAC6; in series [2]) were 11 nM and 794 nM, respectively. The “residual percentage in rat S9 fraction” value in series [1] amounted to 84%.

Turning to `O=C(NO)c1cc(F)c(Cn2nnnc2-c2nccc3ccccc23)c(F)c1` [comp. 94, 3,5-difluoro-4-[[5-(1-isoquinolyl)tetrazol-1-yl]methyl]benzenecarbohydroxamic acid], the IC50 at recombinant human HDAC6 was 7 nM; in series [2], 908 nM. Besides, the “residual percentage in rat S9 fraction” value in series [1] is 22%. Further, the “residual percentage in rat plasma” value in the series “Stability in rat plasma” was found to be 75%.

`O=C(O)c1ccc(-c2nnn(Cc3ccc(C(=O)NO)cc3)n2)nc1` [comp. 162, 6-[2-[[4-(hydroxycarbamoyl)phenyl]methyl]tetrazol-5-yl]pyridine-3-carboxylic acid]: the IC50 at recombinant human HDAC6 stood at 138 nM; in series [2], 16900 nM.

With `Cn1c(Sc2ccc(C(=O)NO)cc2)nnc1C1CCN(C(=O)OC(C)(C)C)CC1` [comp. 82, tert-butyl 4-[5-[4-(hydroxycarbamoyl)phenyl]sulfanyl-4-methyl-1,2,4-triazol-3-yl]piperidine-1-carboxylate], the IC50 at recombinant human HDAC6 stood at 27 nM; in series [2], 6500 nM.

For `COc1ccc(Cc2nnc(-c3cccs3)n2Cc2ccc(C(=O)NO)cc2)cc1OC` [comp. 185, 4-[[3-[(3,4-dimethoxyphenyl)methyl]-5-(2-thienyl)-1,2,4-triazol-4-yl]methyl]benzenecarbohydroxamic acid], the IC50 at recombinant human HDAC6 is 1000 nM; in series [2] it was 10400 nM.

`O=C(O)c1ccc(Cc2nnn(Cc3c(F)cc(C(=O)NO)cc3F)n2)cc1` [comp. 160, 4-[[2-[[2,6-difluoro-4-(hydroxycarbamoyl)phenyl]methyl]tetrazol-5-yl]methyl]benzoic acid]: the IC50 worked out at 115 nM on recombinant human HDAC6 and 16900 nM in series [2].

Take `NCc1ccc(-c2nnnn2Cc2ccc(C(=O)NO)cc2)cc1` [comp. 174, 4-[[5-[4-(aminomethyl)phenyl]tetrazol-1-yl]methyl]benzenecarbohydroxamic acid]: the values for the IC50 (on recombinant human HDAC6; in series [2]) were 129 nM and 50300 nM, respectively.

Consider `O=C(O)c1ccc(Cc2nnn(Cc3ccc(C(=O)NO)cc3)n2)cc1` [comp. 158, 4-[[2-[[4-(hydroxycarbamoyl)phenyl]methyl]tetrazol-5-yl]methyl]benzoic acid], for which the results for the IC50 (on recombinant human HDAC6; in series [2]) were 231 nM and 16900 nM, respectively.
